#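 Protocol summary: plate cells (96-well), add compound at 5 concentrations, incubate 48 h, interpolate endpoints linearly. Here, GI50 denotes the concentration required for 50% inhibition of growth.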 Calls of active or inactive are those of the source. No stated cut-off is given here; in the data, active = GI50 up to about 1.1 µM and inactive = higher. Where a SMILES comes first, the peptide text is derived from it. [ ]: non-standard residue; d: D form. The star is where a group is joined. Bn2Val = CC(C)[C@@H](C(=O)*)N(Cc1ccccc1)Cc1ccccc1; NH(3,4-diMeO-benzyl) = COc1ccc(CN*)cc1OC; NMeV = CN[C@H](C(=O)O)C(C)C
# How the values were obtained:
# Assay in all cases: DTP human tumour cell line panel, 48 h
# IGROV-1 = system: IGROV-1
# ACHN = system: ACHN
# UACC-257 = system: UACC-257
# SNB-75 = system: SNB-75
# NCI/ADR-RES = system: NCI/ADR-RES
# SK-MEL-5 = system: SK-MEL-5
# RXF 393 = system: RXF 393
# MOLT-4 = system: MOLT-4
# OVCAR-3 = system: OVCAR-3
# HT-29 = system: HT-29
# CAKI-1 = system: CAKI-1
# SF-539 = system: SF-539
# MCF7 = system: MCF7
# KM12 = system: KM12
# TK-10 = system: TK-10
# U-251 = system: U-251
# SF-295 = system: SF-295
# MDA-N = system: MDA-N
# HCT-15 = system: HCT-15
# Malme-3M = system: Malme-3M
Compound,GI50 (IGROV-1),GI50 (ACHN),GI50 (UACC-257),GI50 (SNB-75),GI50 (NCI/ADR-RES),GI50 (SK-MEL-5),GI50 (RXF 393),GI50 (MOLT-4),GI50 (OVCAR-3),GI50 (HT-29),GI50 (CAKI-1),GI50 (SF-539),GI50 (MCF7),GI50 (KM12),GI50 (TK-10),GI50 (U-251),GI50 (SF-295),GI50 (MDA-N),GI50 (HCT-15) [µM],GI50 (Malme-3M)
O=C(Cn1c2ccc(Br)cc2c2nc3ccccc3nc21)N/N=C/c1ccccc1,> 100 µM (inactive),> 100 µM (inactive),> 100 µM (inactive),83.9 µM (inactive),> 100 µM (inactive),> 100 µM (inactive),34.9 µM (inactive),> 10 µM (inactive),> 100 µM (inactive),> 100 µM (inactive),> 100 µM (inactive),12.9 µM (inactive),> 100 µM (inactive),> 100 µM (inactive),> 100 µM (inactive),85.7 µM (inactive),16.3 µM (inactive),,,
"COc1ccc(CNC(=O)[C@@H]2CCCN2C(=O)[C@@H]2CCCN2C(=O)[C@H](C(C)C)N(C)C(=O)[C@@H](NC(=O)[C@H](C(C)C)N(Cc2ccccc2)Cc2ccccc2)C(C)C)cc1OC (Bn2Val-V[NMeV]PP-{NH(3,4-diMeO-benzyl)})",3.92 µM (inactive),13.7 µM (inactive),11.3 µM (inactive),10.3 µM (inactive),18.3 µM (inactive),7.5 µM (inactive),11.1 µM (inactive),4.39 µM (inactive),12 µM (inactive),8.3 µM (inactive),15.8 µM (inactive),17.1 µM (inactive),,21.4 µM (inactive),14 µM (inactive),15.7 µM (inactive),15.1 µM (inactive),14.7 µM (inactive),12.1,25.2 µM (inactive)
CCC1=C(C=O)c2cc3[nH]c(cc4nc(c5c6[nH]c(cc1n2)c(C)c6C(=O)C5C(=O)OC)C(CCC(=O)OC)C4C)c(C)c3CC (configuration not stated),> 100 µM (inactive),> 100 µM (inactive),> 100 µM (inactive),> 100 µM (inactive),,> 100 µM (inactive),> 100 µM (inactive),> 100 µM (inactive),> 100 µM (inactive),> 100 µM (inactive),> 100 µM (inactive),> 100 µM (inactive),> 100 µM (inactive),> 100 µM (inactive),> 100 µM (inactive),> 100 µM (inactive),> 100 µM (inactive),> 100 µM (inactive),> 100,> 100 µM (inactive)
Cn1c2ccccc2c(=O)c2cccc(C(=O)NC(CCCNC(=N)N)C(=O)O)c21 (configuration not stated),30.1 µM (inactive),> 100 µM (inactive),> 100 µM (inactive),> 100 µM (inactive),26.1 µM (inactive),> 100 µM (inactive),,> 100 µM (inactive),> 100 µM (inactive),> 100 µM (inactive),,> 100 µM (inactive),> 100 µM (inactive),> 100 µM (inactive),> 100 µM (inactive),> 100 µM (inactive),> 100 µM (inactive),> 100 µM (inactive),> 100,> 100 µM (inactive)
CCOC(=O)CCC(NC(=O)c1ccc(Oc2nc3ccccc3nc2C(=O)OCC)cc1)C(=O)OCC (configuration not stated),> 100 µM (inactive),> 100 µM (inactive),> 100 µM (inactive),21.5 µM (inactive),55.1 µM (inactive),> 100 µM (inactive),,> 100 µM (inactive),> 100 µM (inactive),> 100 µM (inactive),> 100 µM (inactive),> 100 µM (inactive),> 100 µM (inactive),> 100 µM (inactive),> 100 µM (inactive),71.3 µM (inactive),> 100 µM (inactive),> 100 µM (inactive),> 100,
CCCCCCN1C(=O)CC(=O)N(CCCCCC)S1(=O)=O,12.4 µM (inactive),,38.4 µM (inactive),17.9 µM (inactive),21.7 µM (inactive),19.8 µM (inactive),16.4 µM (inactive),23.3 µM (inactive),21.4 µM (inactive),21.6 µM (inactive),22 µM (inactive),19.8 µM (inactive),36 µM (inactive),28.1 µM (inactive),19.1 µM (inactive),17.6 µM (inactive),18.1 µM (inactive),,,23.5 µM (inactive)
COc1cc(Nc2nc3ccccc3n3cccc23)cc(OC)c1OC,54.7 µM (inactive),> 100 µM (inactive),> 100 µM (inactive),,> 100 µM (inactive),> 100 µM (inactive),17.5 µM (inactive),> 100 µM (inactive),> 100 µM (inactive),> 100 µM (inactive),> 100 µM (inactive),> 100 µM (inactive),> 100 µM (inactive),> 100 µM (inactive),36.3 µM (inactive),47.8 µM (inactive),63.5 µM (inactive),,> 100,> 100 µM (inactive)
Cc1ccc(Nc2nc3c(=O)n(C)c(=O)n(C)c3nc2Nc2ccc(C)cc2)cc1,15 µM (inactive),3.46 µM (inactive),15.7 µM (inactive),15.4 µM (inactive),17.2 µM (inactive),16.4 µM (inactive),10.3 µM (inactive),14.8 µM (inactive),,10.4 µM (inactive),16.4 µM (inactive),13.5 µM (inactive),,16.4 µM (inactive),16.4 µM (inactive),16.3 µM (inactive),20.8 µM (inactive),11.3 µM (inactive),3.32,14.9 µM (inactive)
CO[C@H]1[C@@H](O)[C@@H](C)O[C@@H](O[C@H]2CC[C@@]3(C)[C@H](CC[C@@H]4[C@@H]3CC[C@]3(C)[C@@H](C5=CC(=O)OC5)[C@@H](OC(C)=O)C[C@]43O)C2)[C@@H]1O [NERITALOSIDE],0.0371 µM (active),0.0188 µM (active),0.1 µM (active),0.112 µM (active),0.0486 µM (active),0.0405 µM (active),0.0164 µM (active),0.0211 µM (active),0.0229 µM (active),0.0461 µM (active),0.0208 µM (active),0.0248 µM (active),0.16 µM (active),0.157 µM (active),0.0164 µM (active),0.0798 µM (active),0.0461 µM (active),,0.0973,0.016 µM (active)
Cc1cccc(O)c1-c1nnc(CCCCCCCCc2nnc(-c3c(C)cccc3O)n2N)n1N,> 100 µM (inactive),> 85.7 µM (inactive),> 100 µM (inactive),25 µM (inactive),,> 100 µM (inactive),,8.41 µM (inactive),50.5 µM (inactive),> 100 µM (inactive),> 100 µM (inactive),> 96.4 µM (inactive),55 µM (inactive),95.1 µM (inactive),> 41.4 µM (inactive),23.2 µM (inactive),51.6 µM (inactive),> 64.6 µM (inactive),> 100,> 85.3 µM (inactive)
CC(=O)NC(CCCN)C(=O)NCc1ccccc1 (configuration not stated),> 100 µM (inactive),> 100 µM (inactive),> 100 µM (inactive),> 100 µM (inactive),,> 100 µM (inactive),> 100 µM (inactive),> 100 µM (inactive),> 100 µM (inactive),> 100 µM (inactive),> 100 µM (inactive),> 100 µM (inactive),,> 100 µM (inactive),> 100 µM (inactive),> 100 µM (inactive),> 100 µM (inactive),,> 100,> 100 µM (inactive)
CC12OC3(C(O)C1O)C(C(=O)O[C@H]3CO[Si](C)(C)C(C)(C)C)C2S(=O)(=O)c1ccccc1 (some centres not stated),21 µM (inactive),48.1 µM (inactive),25.8 µM (inactive),13.9 µM (inactive),11.9 µM (inactive),,,23.6 µM (inactive),40.6 µM (inactive),33.3 µM (inactive),,58.1 µM (inactive),36.1 µM (inactive),33.3 µM (inactive),59.8 µM (inactive),86.3 µM (inactive),43.1 µM (inactive),61.4 µM (inactive),33.7,
CCNC(=O)/C=C/CCC#Cc1ccc(-c2ccc(-c3cccs3)s2)s1,> 100 µM (inactive),> 100 µM (inactive),> 100 µM (inactive),> 100 µM (inactive),,5.24 µM (inactive),> 100 µM (inactive),> 100 µM (inactive),> 100 µM (inactive),> 100 µM (inactive),> 100 µM (inactive),> 100 µM (inactive),,> 100 µM (inactive),> 100 µM (inactive),> 100 µM (inactive),> 100 µM (inactive),,> 100,3.52 µM (inactive)
OCCN(C1=NCCN1)/[N+](=C\c1ccccn1)[CH-]c1ccccn1,> 100 µM (inactive),> 100 µM (inactive),> 100 µM (inactive),> 100 µM (inactive),> 100 µM (inactive),> 100 µM (inactive),,> 100 µM (inactive),> 100 µM (inactive),> 100 µM (inactive),> 100 µM (inactive),> 100 µM (inactive),> 100 µM (inactive),> 100 µM (inactive),,> 100 µM (inactive),> 100 µM (inactive),> 100 µM (inactive),> 100,> 100 µM (inactive)
CCn1c(=O)c2c(=O)[nH][nH]c2c2ccccc21,> 100 µM (inactive),> 100 µM (inactive),> 100 µM (inactive),> 100 µM (inactive),> 100 µM (inactive),> 100 µM (inactive),,> 100 µM (inactive),> 100 µM (inactive),> 100 µM (inactive),,> 100 µM (inactive),> 100 µM (inactive),> 100 µM (inactive),> 100 µM (inactive),> 100 µM (inactive),> 100 µM (inactive),> 100 µM (inactive),> 100,> 100 µM (inactive)

# — ChEMBL document CHEMBL1201862, “PubChem BioAssay data set” (2004)
